This note sets out measurements from patent publication US5591758A, “Organic nitrates, processes for their preparation and their use in the treatment of cardiovascular diseases” (Laboratoires Hoechst, SA, priority 1991, dated 1997).

Series [1] relates to isolated pulmonary vessel. Briefly: Relaxant activity on blood vessels isolated from guinea pigs (pulmonary artery). The following applies: Cavia porcellus; guinea pig pulmonary artery, K+ depolarised, Ca2+ contraction; read-out: IC50 (relaxation of 50%). As for the experimental part: Determination of the relaxant activity of the compounds according to the invention on blood vessels isolated from guinea pigs.
The pulmonary artery of male guinea pigs (350-500 g) is isolated and cut into spiral tracts (1 mm wide, 15 mm long). […] After having removed the calcium from the tissues (Tyrode without calcium and 0.2 mM EDTA), the tracts are depolarised in the presence of a concentrated solution of K^+ ions (40 mM), which is produced by replacing the NaCl by equimolar amounts of KCl, and a contraction of long duration is then induced by Ca^2+ ions (0.5 mM).
The compounds studied are then introduced into the organ cell in increasing concentrations.
Each compound is tested on at least four vessel spiral tracts.

Series [2] relates to anesthetised pigs. Description: Haemodynamic effects on anesthetised pigs. Type of series: in vivo, pigs ("German land" race). As for the experimental part: Haemodynamic effects of the compounds according to the invention on anesthetised pigs or dogs
Pigs are of "German land" race (20-26 kg) and are used after fasting overnight.
In the case of pigs, sedation, analgesia and anesthesia are induced by ketamine HCl (20 mg/kg i.m.), methonidate HCl (10 mg/kg i.m.), xylacine HCl (3 mg/kg i.m.) and sodium pentobarbitol (25-30 mg/kg as bolus i.v. or 0.16 mg/kg/min as i.v. perfusion).
The pigs or dogs are placed under artificial respiration in ambient air. Analysis of the blood gases (pO2, pCO2) is carried out at regular intervals and oxygen can be supplied via the respirator, if necessary.
The haemodynamic parameters recorded include the left ventricular pressure (LVP; Millar PC350 Tip catheter inserted via the carotid artery), systemic blood pressure (BPs, BPd; full catheter in a femoral artery), the end pressure of the left ventricular diastole (LVEDP), the ventricular contractility (LVPdp/dtmax) and the heart rate (HR).
The haemodynamic variables are recorded continuously for 1 to 3 hours, as a function of the period of action of the compound.
The effects of the compounds studied are shown as the absolute difference with respect to the base value (bv) measured before administration of the compounds and are shown in Table VII (a,b,c).
An antianginal activity is estimated by a fall in the BPs and the LVEDP (fall in venous return).

Series [3] has as its system thoracic aorta. Briefly: Vasorelaxant effect on isolated vessels (rat thoracic aorta rings without endothelium, precontracted with noradrenalin). Set-up: species or system Wistar rats. The following applies: for Emax: Rattus norvegicus, maximum inhibition of noradrenalin effect, 10^-8 to 10^-4 M substance, read-out: Maximum Relaxation; for IC50: rat aorta, 10^-7 M noradrenalin contraction. The gist of the method: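 Endothelium-denuded thoracic aorta rings from Wistar rats, held in Krebs-Ringer buffer (pH 7.4, 37 °C, 95% O2/5% CO2) under isometric tension and precontracted with 10^-7 M noradrenalin, received cumulative compound (10^-8 to 10^-4 M). Maximum relaxation given as percent; IC50 calculated when relaxation exceeded 50%.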

Series [4] is described as follows: Stability in water (seen in optical rotation). In kind it is physicochemical. The following applies: water (c 0.6).

Where a name gives a salt, the structure may show the parent alone. Some results are limits rather than exact numbers.

With `NCC(=O)N[C@H]1CO[C@H]2[C@@H]1OC[C@@H]2O[N+](=O)[O-]` [Compound 6, Glycine amide of 5-amino-5-deoxy-2-O-nitro-1,4:3,6-dianhydro-L-iditol monohydrochloride], the IC50 in series [1] was 30 µM. Further, in series [2] (pigs, 1,0 mg/kg i.d.), the “BPs (min), period of action” value is above 180 min; the “BPs, difference to base value” was -31 mmHg; the “LVRDP (min), period of action” value was above 180 min; the “LVRDP, difference to base value” was -4,0 mmHg. For the same compound, in series [3], the Emax was found to be 45% and the IC50 was above 100 µM.

Take `CC1(C)N[C@H](C(=O)N[C@H]2CO[C@H]3[C@@H]2OC[C@@H]3O[N+](=O)[O-])CS1` [Compound 32, 5-[[(2,2-Dimethyl-4-L-thiazolidinyl)carbonyl]amino]-5-deoxy-2-O-nitro-1,4:3,6-dianhydro-L-iditol monohydrochloride]: in series [2] (pigs, 3,0 mg/kg i.d.), the “BPs (min), period of action” value is recorded as above 180 min; the “BPs, difference to base value” is on record as -30 mmHg; the “LVRDP (min), period of action” value is on record as above 180 min; the “LVRDP, difference to base value” is -4,0 mmHg. In series [3], the Emax stood at 100% and half-maximal inhibition (IC50) required 15 µM. Besides, in series [4], the stability in water entry is “instability of the product in water”.

For `CC(C)(C)OC(=O)NCC(=O)N[C@H]1CO[C@H]2[C@@H]1OC[C@@H]2O[N+](=O)[O-]` [Compound 5, N-[(t-Butoxy)carbonyl]glycine amide of 5-amino-5-deoxy-2-O-nitro-1,4:3,6-dianhydro-L-iditol], in series [1], the half-inhibitory concentration (IC50) is 14 µM. In addition, in series [2] (pigs, 1,0 mg/kg i.d.), the “BPs (min), period of action” value is above 120 min; the “BPs, difference to base value” was -24 mmHg; the “LVRDP (min), period of action” value was above 120 min; the “LVRDP, difference to base value” is on record as -4,0 mmHg. Further, in series [3], the Emax was 70% and inhibition was half-maximal at 25 µM (IC50).

Take `O=C(N[C@H]1CO[C@H]2[C@@H]1OC[C@@H]2O[N+](=O)[O-])[C@@H]1CSCN1` [Compound 30, 5-[[(4-L-Thiazolidinyl)carbonyl]amino]-5-deoxy-2-O-nitro-1,4:3,6-dianhydro-L-iditol monohydrochloride]: the IC50 in series [1] worked out at 32 µM. In addition, in series [2] (pigs, 3,0 mg/kg i.d.), the “BPs (min), period of action” value was above 60 min; the “BPs, difference to base value” was -40 mmHg; the “LVRDP (min), period of action” value is recorded as above 60 min; the “LVRDP, difference to base value” is recorded as -2,0 mmHg. In series [3], the Emax is 100% and the IC50 stood at 10 µM.

As to `O=C(CNC(=O)OCc1ccccc1)N[C@H]1CO[C@H]2[C@@H]1OC[C@@H]2O[N+](=O)[O-]` [Compound 4, N-[(Benzyloxy)carbonyl]glycine amide of 5-amino-5-deoxy-2-O-nitro-1,4:3,6-dianhydro-L-iditol], the IC50 in series [1] worked out at 6 µM. In series [2] (pigs, 3,0 mg/kg i.d.), the “BPs (min), period of action” value was above 120 min; the “BPs, difference to base value” is -28 mmHg; the “LVRDP (min), period of action” value was above 120 min; the “LVRDP, difference to base value” is given as -2,0 mmHg. Also, in series [3], the Emax was determined as 75% and the midpoint of inhibition, the IC50, lay at 20 µM.

Take `O=C(O[C@@H]1CO[C@H]2[C@@H]1OC[C@@H]2O[N+](=O)[O-])c1ccccc1SCc1ccccc1` [Compound 28, 5-O-[2-[(Phenylmethyl)thio]benzoyl]-2-O-nitro-1,4:3,6-dianhydro-D-glucitol]: the IC50 in series [1] amounted to 2 µM. For the same compound, in series [2] (pigs, 3,0 mg/kg i.d.), the “BPs (min), period of action” value is given as above 180 min; the “BPs, difference to base value” is -28 mmHg; the “LVRDP (min), period of action” value is reported as above 180 min; the “LVRDP, difference to base value” is on record as -6,0 mmHg. For the same compound, in series [3], the Emax was found to be 70% and the IC50 was found to be 50 µM.

What is called IC50 is the midpoint of a concentration-inhibition curve.
